According to paper PMC6005341, “Identification of “sarsasapogenin-aglyconed” timosaponins as novel Aβ-lowering modulators of amyloid precursor protein processing” (Chemical Science, 2016):

What was measured:
[1] = molecular target: T1, β-secretase (Mus musculus, UniProt P56818); assay: β-Secretase assay in N2A-APPswe cell protein extracts; format: biochemical
T1 construct: endogenous in cells; host or cells: N2A-APPswe (Neuro-2A stably expressing APP Swedish mutant)
Description: β-Secretase assays: Confluent N2A-APPswe cells were harvested and homogenized with 50
mM MES, pH5.5. Protein extracts (10 µg) were incubated with testing compounds or vehicle
for 1 h at room temperature. […]

[2] = tested on: Neuro-2A cells; assay: Neurite outgrowth, type III β-tubulin immunostaining; format: cell-based; conditions: at concentrations that lower Aβ production, 18 h
Description: Immunofluorescence examination of neurite outgrowth: Neuro-2A cells were seeded at 1×105 per glass bottom dishes. After treatment, cells were fixed with 4% paraformaldyde for 10 min, permeabilized with 0.1% Triton X-100, and then blocked with 1% BSA in PBS.
The cells were incubated with monoclonal antibody raised against type III β-tubulin (Sigma) for 1 h followed by Alexa488 conjugated secondary antibody. Neurite morphology was examined under fluorescence microscope. […]

[3] = tested on: animal models of dementia; design: method as in PMID 19426756, PMID 16226729, PMID 17566650; conditions: oral administration; cited from earlier work
[4] = tested on: Aβ42 levels in the brain; assay: In vivo brain Aβ42 level by ELISA after oral dosing; conditions: 100 mg kg^–1 oral gavage, three times in 2 days, 3–5 month old C57BL/6 mice
Description: was performed at least three times. The lowest binding scores were computed and the conformations of the corresponding binding pose presented.
Quantum mechanics/Molecular mechanics. The binding between transmembrane and substrate was further optimized using the QM/MM approach and NWChem software. The quantum part (QM) included TAIII (total 116 atoms), while the rest of the system was modelled as the molecular mechanics (MM) level. The QM region was treated at the DFT level using the B3LYP method. The 6-31G* Pople basis set was employed for all the atoms.
The transmembrane was described with the AMBER parm99 force field. The binding structure was solvated in a cubic box with 6872 classical SPC/E water molecules. Three negative counter ions (Cl-) were added to neutralize the charges in the system. The structure was optimized by performing the BFGS algorithm for the QM part and the steepest descent algorithm for the MM part. The optimization of these two regions (QM and MM) was alternated until self-consistency was reached.
Animal experiments: Male C57BL/6N mice were housed in environmentally controlled room (temperature: 25 ± 2 °C, humidity: 50 ± 5%, 12-h light-dark cycle) in Laboratory Animal Unit, The University of Hong Kong and were freely access to food and water. TAIII, TAI SSG and compound 34 were dissolved in 5% Tween 80 and given to the mice by oral gavage at three repeated doses of 100 mg/kg in 48 hours. Mice were administrated with 5% Tween 80 (control group), TAIII, TAI SSG and 34. The experimental procedures were performed with the approval of Committee of Use of Live Animal for Teaching and Research of The University of Hong Kong. Blood (about 600-800 µL) was collected by cardiac puncture and added with 1/10 volume of Na2EDTA (20 mg/mL) to prevent coagulation. After centrifugation at 3000 g for 15 min at 4 °C, plasma was transferred to a centrifuge tube. […] Both plasma and brain samples were stored at -80 °C until they were analyzed. The Aβ42 levels were determined by Wako High Sensitive Aβx-42 ELISA kit. […]

[5] = tested on: Aβ40 and Aβ38 in N2A-APPswe cells; assay: Aβ40 and Aβ38 in conditioned medium of N2A-APPswe cells by ELISA; format: cell-based; conditions: compared with Aβ42
Description: Aβ ELISA: Aβ concentrations in conditioned medium were assayed using ELISA kits for […]

[6] = molecular target: T2, purified BACE1 (Homo sapiens, UniProt P56817); assay: β-Secretase assay with purified BACE1; format: biochemical
T2 construct: purchased Millipore
T2 sequence (P56817 46-501, species assumed): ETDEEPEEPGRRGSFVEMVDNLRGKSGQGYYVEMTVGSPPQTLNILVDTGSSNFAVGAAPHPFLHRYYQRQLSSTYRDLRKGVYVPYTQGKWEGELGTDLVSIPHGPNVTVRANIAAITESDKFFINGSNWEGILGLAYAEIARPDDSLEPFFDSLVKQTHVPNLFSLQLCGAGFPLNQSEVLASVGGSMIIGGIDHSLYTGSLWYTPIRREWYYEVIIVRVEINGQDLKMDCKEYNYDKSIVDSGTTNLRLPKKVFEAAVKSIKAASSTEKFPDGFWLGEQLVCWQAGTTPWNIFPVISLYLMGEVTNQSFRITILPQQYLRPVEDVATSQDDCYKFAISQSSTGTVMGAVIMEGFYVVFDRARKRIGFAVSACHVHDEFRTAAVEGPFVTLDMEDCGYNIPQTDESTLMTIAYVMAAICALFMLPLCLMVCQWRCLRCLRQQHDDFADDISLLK
Description: mM MES, pH5.5. Protein extracts (10 µg) were incubated with testing compounds or vehicle for 1 h at room temperature. The β-secretase activities were assayed by adding 10 µM fluorogenic β-secretase substrate (Millipore) to the reaction mixtures and the fluorescence (excitation, 380; emission, 460) were measured. β-Secretase assays were also performed using purified BACE1 (Millipore) at 100 ng in a buffer containing 50 mM MES, pH 5.5. […]

T1 sequence (P56818 46-501): as the sequence (P56817 46-501, species assumed) above, with P6S, V162I, L165I, S180T, V182A, I340V, L393A, Q443H counted along it

Structure (SMILES): C[C@H]1CC[C@@]2(OC1)O[C@H]1C[C@H]3[C@@H]4CC[C@@H]5C[C@@H](O)CC[C@]5(C)[C@H]4CC[C@]3(C)[C@H]1[C@@H]2C [SSG (1), sarsasapogenin]
- β-secretase activities in the cell extracts [1]: no change
- neurite outgrowth [2]: markedly stimulated
- memory dysfunction [3]: improve

Structure (SMILES): C[C@H]1CC[C@@]2(OC1)O[C@H]1C[C@H]3[C@@H]4CC[C@@H]5C[C@@H](O[C@@H]6O[C@H](CO)[C@H](O)[C@H](O)[C@H]6O)CC[C@]5(C)[C@H]4CC[C@]3(C)[C@H]1[C@@H]2C [TAI (3), timosaponin A I]
- reduction of Aβ42 levels in the brain [4]: 87% ± 14%
- effect on Aβ40 and Aβ38 [5]: much smaller effect

Structure (SMILES): C[C@H]1CC[C@@]2(OC1)O[C@H]1C[C@H]3[C@@H]4CC[C@@H]5C[C@@H](O[C@@H]6O[C@H](CO)[C@H](O)[C@H](O)[C@H]6O[C@@H]6O[C@H](CO)[C@@H](O)[C@H](O)[C@H]6O)CC[C@]5(C)[C@H]4CC[C@]3(C)[C@H]1[C@@H]2C [TAIII (2), timosaponin A III]
- β-secretase activities in the cell extracts [1]: did not affect
- activities of purified BACE1 [6]: did not affect
- reduction of Aβ42 levels in the brain [4]: 83% ± 13%
- effect on Aβ40 and Aβ38 [5]: much smaller effect
- memory dysfunction [3]: improve
